Our source for the TGI values is PubChem BioAssay (NCI).

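How tested: cells in 96-well plates exposed to compound for 48 hours at five concentrations. At the TGI there is no net growth.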

Among the test systems are HCT-15 colon; SW-620 colon; MALME-3M melanoma; HCC-2998 colon; SF-539 CNS; K-562 leukemia; CCRF-CEM leukemia; NCI-H460 lung; CAKI-1 renal; MDA-N.
Assay in all cases: NCI tumour cell line growth inhibition, 48 h

As to `c1ccc2c(c1)CCc1cc3cc4c(nc3nc1-2)-c1ccccc1CC4`, the TGI in the experiment on HCT-15 colon, in the experiment on SW-620 colon, with MALME-3M melanoma, in the experiment on HCC-2998 colon, in the experiment on SF-539 CNS and in the experiment with K-562 leukemia was above 100 µM each time. Further, the TGI with CCRF-CEM leukemia and in the experiment with NCI-H460 lung was above 100 µM throughout.

Regarding `CCSC1=C(C)N(C=NC(C)(C)C)CC1`, the TGI with HCT-15 colon was above 100 µM; in the experiment on SW-620 colon, 73.8 µM; with MALME-3M melanoma it was above 100 µM; in the experiment on HCC-2998 colon, above 100 µM; in the experiment on SF-539 CNS, above 100 µM; in the experiment on CAKI-1 renal, above 100 µM. Moreover, the TGI with K-562 leukemia, in the experiment on CCRF-CEM leukemia and in the experiment with NCI-H460 lung was above 100 µM in each case.

On to `O=C1NC2(CCCCC2)C2CCCCCC12` (stereo unspecified), for which the TGI in the experiment with HCT-15 colon, with SW-620 colon, in the experiment on MALME-3M melanoma, in the experiment with HCC-2998 colon, with SF-539 CNS and in the experiment on K-562 leukemia was above 100 µM each time. Moreover, in the experiment with NCI-H460 lung, the TGI was above 100 µM.

As for `O=c1[nH]c(=O)n(Cc2ccccc2CO)cc1Sc1ccccc1`, the TGI in the experiment on HCT-15 colon is 53.5 µM; in the experiment on SW-620 colon, above 100 µM; in the experiment with MALME-3M melanoma it was 41.5 µM; with HCC-2998 colon, 30.8 µM; in the experiment with SF-539 CNS, 93.9 µM; in the experiment on CAKI-1 renal, 27.2 µM. Further, the TGI in the experiment with K-562 leukemia, with CCRF-CEM leukemia and in the experiment with NCI-H460 lung was above 100 µM throughout.

Turning to `O=C1/C(=C/c2ccccc2[N+](=O)[O-])N=C(c2ccccc2)N1C1Nc2cc3c(cc2S1)NC(N1C(=O)/C(=C/c2ccccc2[N+](=O)[O-])N=C1c1ccccc1)S3` (stereo unspecified), the TGI was above 100 µM in the experiment on HCT-15 colon; above 100 µM with SW-620 colon; 38.1 µM with HCC-2998 colon; above 100 µM with SF-539 CNS; above 100 µM in the experiment with CAKI-1 renal; above 100 µM with MDA-N. Moreover, the TGI in the experiment with K-562 leukemia and in the experiment on NCI-H460 lung was above 100 µM in each case.

For `Oc1[nH]c2ccccc2c1N=Nc1nc(-c2ccc(Cl)c(Cl)c2)cs1`, the TGI with HCT-15 colon, in the experiment on SW-620 colon, with HCC-2998 colon, in the experiment on SF-539 CNS, in the experiment with CAKI-1 renal and with MDA-N was above 100 µM in each case. The same molecule returned a TGI in the experiment with NCI-H460 lung above 100 µM.

Take `COc1cccc(/C=N/[N-]C(N)=O)c1[O-].[Ni+2].[OH3+].c1cnc2c(c1)ccc1cccnc12`: the TGI in the experiment on HCT-15 colon, with SW-620 colon, in the experiment with MALME-3M melanoma, with SF-539 CNS, in the experiment on CAKI-1 renal and in the experiment with K-562 leukemia was above 100 µM in each case. The TGI in the experiment with CCRF-CEM leukemia and in the experiment on NCI-H460 lung was above 100 µM each time.

Consider `CCCCOP1(=O)C=C(C)C(=C(Cl)Cl)C(C)=C1` (stereo unspecified), for which the TGI with HCT-15 colon is 40.8 µM; in the experiment with SW-620 colon it was above 40 µM; in the experiment with MALME-3M melanoma, 31.6 µM; with HCC-2998 colon it was 52.3 µM; with SF-539 CNS, 83.3 µM; in the experiment with CAKI-1 renal, 27.8 µM. The TGI with K-562 leukemia is above 100 µM; in the experiment on CCRF-CEM leukemia it was above 41.4 µM; in the experiment with NCI-H460 lung it was 36 µM.

With `C=C1C(=O)OCC2C(C(=O)O)=CC3C(C)C(C)=CC123` (stereo unspecified), the TGI came out at 43.8 µM in the experiment with HCT-15 colon; 40.9 µM in the experiment on SW-620 colon; 17.6 µM in the experiment on MALME-3M melanoma; 29 µM in the experiment with HCC-2998 colon; 23.9 µM with SF-539 CNS; 62.6 µM with CAKI-1 renal. For the same molecule, the TGI with K-562 leukemia is 72.4 µM; in the experiment with CCRF-CEM leukemia, 42 µM; in the experiment on NCI-H460 lung, 29.2 µM.

For the molecule `NC(N)=NNC(=O)CCCCCCCC(=O)NN=C(N)N`, the TGI with HCT-15 colon was 34.1 µM; in the experiment on SW-620 colon it was 27.4 µM; in the experiment on MALME-3M melanoma it was above 100 µM; in the experiment on HCC-2998 colon, above 100 µM; in the experiment on SF-539 CNS, above 100 µM; in the experiment on CAKI-1 renal, above 100 µM. The TGI in the experiment with K-562 leukemia, in the experiment with CCRF-CEM leukemia and in the experiment on NCI-H460 lung was above 100 µM each time.

Turning to `NCCNc1cccc2ccccc12`, the TGI in the experiment with HCT-15 colon, with SW-620 colon, in the experiment with MALME-3M melanoma, with HCC-2998 colon, with SF-539 CNS and in the experiment on CAKI-1 renal was above 100 µM throughout. Further, the TGI in the experiment on NCI-H460 lung was above 100 µM.

Regarding `Cc1ccc(C(C2C(=O)N(C)C(=O)N(C)C2=O)C(F)(F)C(=O)N(C)C)cc1` (stereo unspecified), the TGI in the experiment on HCT-15 colon, in the experiment with SW-620 colon, in the experiment on MALME-3M melanoma, in the experiment with HCC-2998 colon, in the experiment on SF-539 CNS and in the experiment with CAKI-1 renal was above 100 µM in each case. Also, the TGI in the experiment on CCRF-CEM leukemia and in the experiment on NCI-H460 lung was above 100 µM throughout.

For the molecule `CCN(c1ccc(Br)cc1)c1c(Br)c(=O)nc2ccccn12`, the TGI in the experiment with HCT-15 colon, in the experiment on SW-620 colon, in the experiment on MALME-3M melanoma, in the experiment on SF-539 CNS, in the experiment with CAKI-1 renal and in the experiment with K-562 leukemia was above 100 µM each time. For the same molecule, the TGI with CCRF-CEM leukemia and in the experiment on NCI-H460 lung was above 100 µM in each case.

As to `Cc1cccc(NC(=O)C(=O)C(C(=O)c2ccccc2F)C2OC(=O)c3ccccc32)c1Cl` (stereo unspecified), the TGI is 73.3 µM in the experiment with HCT-15 colon; above 100 µM in the experiment with SW-620 colon; 43.7 µM in the experiment with HCC-2998 colon; 40.4 µM in the experiment on SF-539 CNS; above 100 µM in the experiment on CAKI-1 renal; above 100 µM in the experiment with K-562 leukemia. Moreover, the TGI with CCRF-CEM leukemia is 83 µM; with NCI-H460 lung, above 100 µM.

For the molecule `CC(C)(C)C(=O)ON1N=NC2C3CC(OCc4ccccc4)(OCc4ccccc4)C(O3)C21` (stereo unspecified), the TGI was 56.3 µM with HCT-15 colon; 50.7 µM in the experiment with SW-620 colon; 31.2 µM with MALME-3M melanoma; 31.2 µM with HCC-2998 colon; 31 µM with SF-539 CNS; above 100 µM in the experiment with CAKI-1 renal. Moreover, the TGI was found to be 37 µM in the experiment with K-562 leukemia, 45.8 µM in the experiment with CCRF-CEM leukemia and 60.4 µM with NCI-H460 lung.

Turning to `COc1cccc(Cc2c3cc(OC)ccc3cc[n+]2C)c1`, the TGI with HCT-15 colon, in the experiment on SW-620 colon, in the experiment on MALME-3M melanoma, in the experiment with HCC-2998 colon, in the experiment on CAKI-1 renal and with K-562 leukemia was above 100 µM each time. Moreover, the TGI with CCRF-CEM leukemia and in the experiment with NCI-H460 lung was above 100 µM in each case.
